In paper PMC5736175, “Nicotinic alpha 7 receptor agonists EVP-6124 and BMS-933043, attenuate scopolamine-induced deficits in visuo-spatial paired associates learning” (PLoS ONE, 2017):
Where “and” joins values, the source holds several entries; their conditions need not be identical. Equal entries are not always repeated.

Key:
[1] = Plasma pharmacokinetics in satellite animals (LC-MS/MS), 60 min after i.m. dose; details: individual subjects
Protocol: (§1) For all compounds, plasma pharmacokinetic studies were conducted in a separate cohort of cynomolgus monkeys (N = 2–3 subjects per dose) before beginning vsPAL testing to help guide dose selection. Blood samples were obtained with the animals awake and sitting in a primate chair.
(§2) Plasma concentrations of test compounds were determined using LC-MS/MS assays. In brief, 50 μL plasma and sample containing compounds was extracted by protein precipitation method with 150 μL acetonitrile containing an internal standard. A 5 μL sample of supernatant was injected into the LC-MS/MS system. Analytes were separated by reversed phase chromatography and detection of each analyte was achieved through selected reaction monitoring mode of mass spectrometry. Samples were quantified by calculated peak area ratio of analyte and internal standard against a calibration curve.

[2] = Plasma concentration in vsPAL subjects immediately after completion of testing (LC-MS/MS); details: individual subjects
Protocol: as §1, with “chair. For most test sessions with BMS-933043 and EVP-6124, plasma samples were also taken from a subset of vsPAL subjects (N = 4–5) immediately after completion of testing (mean (SD) sample collection time = 69.8 (9.8) min post injection).” for “chair.”
as §2

human nAChR α7 [3] = tested on: human nAChR α7; parameters: method as in PMID 27467081; details: intrinsic activity; HEK293 cells expressing human nAChR α7; cited from earlier work
human nAChR α7 [4] = tested on: human nAChR α7; parameters: method as in PMID 20959364, PMID 22085888; details: xenopus oocytes expressing human nAChR α7; cited from earlier work
5-HT3 receptor = details: cited from earlier work
[5] = parameters: method as in PMID 25438724; details: 20 mg dose (maximal DSST effects), cited from earlier work

nM total compound in plasma from satellite animals, 60 min ([1]; 0.03 mg/kg i.m.): 4.1 nM and 3.5 nM
nM total compound in plasma from satellite animals, 60 min ([1]; 0.10 mg/kg i.m.): 9.5 nM
nM total compound in plasma from satellite animals, 60 min ([1]; 0.30 mg/kg i.m.): 39.6 nM
nM total compound in plasma from satellite animals, 60 min ([1]; 1.00 mg/kg i.m.): 103.0 nM
nM total compound in plasma post session ([2]; 0.01 mg/kg i.m., row): 1.526 nM and 1.174 nM and 1.539 nM
nM total compound in plasma post session ([2]; 0.03 mg/kg i.m.): 4.44 nM and 6.8 nM and 3.56 nM
nM total compound in plasma post session ([2]; 1.00 mg/kg i.m.): 196 nM and 145 nM and 188 nM and 192 nM
SMILES: Cl.O=C(N[C@H]1CN2CCC1CC2)c1cc2cccc(Cl)c2s1 [EVP-6124, (R)-7-chloro-N-(quinuclidin-3-yl)benzo[b]thiophene-2-carboxamide HCl]
nM total compound in plasma post session ([2]; 0.003 mg/kg i.m.): 0.5 nM and 1.4 nM and 1.6 nM and 1.1 nM and 0.496 nM
nM total compound in plasma post session ([2]; 0.10 mg/kg i.m.): 14.8 nM and 14.9 nM and 11.8 nM and 10.9 nM
nM total compound in plasma post session ([2]; 0.30 mg/kg i.m.): 76.7 nM and 38.4 nM and 48.3 nM and 47.3 nM
net charge relative to acetylcholine (human nAChR α7 [3]): 136%
peak current response relative to acetylcholine (human nAChR α7 [3]): 32%
maximal peak current, % of the acetylcholine response (human nAChR α7 [4]): 80%
5-HT3 receptor antagonism (5-HT3 receptor): potent 5-HT3 receptor antagonists
plasma Cmax [5]: 10.4 ng/mL
Cmax ([5]; read-out: plasma Cmax): 32 nM
